Results published in patent US20260078158A1, “COMPOSITIONS COMPRISING CXCL10-DERIVED PEPTIDES AND METHODS OF USE THEREOF” (priority 2022, published 2026).
“And” between values parts separate entries of the source, which are not always exact repeats. Identical values can stand only once. Like-named read-outs stand apart in the source and are kept apart here.

What was measured:
[1] = tested on: E. cloacae species complex; assay: microbe, parasite or virus in culture; assay type: cell-based, Enterobacter cloacae; conditions: acetate formulation
[2] = tested on: Enterococcus faecium; assay: microbe, parasite or virus in culture; assay type: cell-based; conditions: acetate formulation
[3] = tested on: Klebsiella pneumoniae; parameters: MIC: unit not given beside the values; conditions: strain ATCC 43816, sponsor, acetate formulation
[4] = tested on: Pseudomonas aeruginosa; assay: microbe, parasite or virus in culture; assay type: cell-based; conditions: acetate formulation, in µg/mL
[5] = tested on: Staphylococcus aureus; assay: microbe, parasite or virus in culture; assay type: cell-based; conditions: acetate formulation, in µg/mL
[6] = tested on: Streptococcus pneumoniae; assay: microbe, parasite or virus in culture; assay type: cell-based; conditions: acetate formulation, in µg/mL
[7] = tested on: Escherichia coli; assay: microbe, parasite or virus in culture; assay type: cell-based; conditions: acetate formulation
[8] = tested on: Acinetobacter baumannii-calcoaceticus complex; assay: microbe, parasite or virus in culture; assay type: cell-based; conditions: acetate formulation
[9] = tested on: Enterococcus faecalis; assay: microbe, parasite or virus in culture; assay type: cell-based; conditions: acetate formulation, in µg/mL

## RYVRCRCI [Peptide P194]
[1]; Enterobacter cloacae strain 1230117, non-MDR, replicate R1
  MIC: 8 µg/mL
[1]; Enterobacter cloacae strain 1230117, non-MDR, replicate R2
  MIC: 8 µg/mL
[1]; strain 1197959, non-MDR, replicate R1
  MIC: 16 µg/mL
[1]; strain 1197959, non-MDR, replicate R2
  MIC: 16 µg/mL
[1]; strain 1204419, non-MDR, replicate R1
  MIC: 16 µg/mL
[1]; strain 1204419, non-MDR, replicate R2
  MIC: 16 µg/mL
[1]; strain 1230601, non-MDR, replicate R1
  MIC: 16 µg/mL
[1]; strain 1230601, non-MDR, replicate R2
  MIC: 8 µg/mL
[1]; strain 1232701, MDR, replicate R1
  MIC: 16 µg/mL
[1]; strain 1232701, MDR, replicate R2
  MIC: 16 µg/mL
[2]; strain 1196024, VRE, replicate R1
  MIC: 2 µg/mL
[2]; strain 1196024, VRE, replicate R2
  MIC: 2 µg/mL
[2]; strain 1208412, VRE, replicate R1
  MIC: 2 µg/mL
[2]; strain 1208412, VRE, replicate R2
  MIC: 1 µg/mL
[2]; strain 1222807, VSE, replicate R1
  MIC: 2 µg/mL
[2]; strain 1222807, VSE, replicate R2
  MIC: 1 µg/mL
[3]; replicate R1
  MIC: 8 (3×) and 4
[3]; replicate R2
  MIC: 8 and 4 (2×)
[4]; strain 1190985, non-MDR, replicate R1
  MIC: 32
[4]; strain 1190985, non-MDR, replicate R2
  MIC: 32
[4]; strain 1202638, MDR, replicate R1
  MIC: 32
[4]; strain 1202638, MDR, replicate R2
  MIC: 32
[4]; strain 1210081, non-MDR, replicate R1
  MIC: 32
[4]; strain 1210081, non-MDR, replicate R2
  MIC: 32
[4]; strain 1242554, non-MDR, replicate R1
  MIC: 32
[4]; strain 1242554, non-MDR, replicate R2
  MIC: 16
[4]; strain 1263496, MDR, replicate R1
  MIC: 16
[4]; strain 1263496, MDR, replicate R2
  MIC: 8
[4]; strain ATCC 27853, QC, replicate R1
  MIC: 16
[4]; strain ATCC 27853, QC, replicate R2
  MIC: 8
[5]; strain 1124691, MRSA (USA300)/MDR, replicate R1
  MIC: 32
[5]; strain 1182822, replicate R2
  MIC: 32
[5]; strain 1189667, MRSA/MDR, replicate R1
  MIC: 32
[5]; strain 1189667, MRSA/MDR, replicate R2
  MIC: 16
[5]; strain 1189809, MRSA/MDR, replicate R1
  MIC: 32
[5]; strain 1189809, MRSA/MDR, replicate R2
  MIC: 32
[5]; strain 1190388, MRSA, replicate R1
  MIC: 32
[5]; strain 1190388, MRSA, replicate R2
  MIC: 16
[5]; strain 1221979, MRSA, replicate R1
  MIC: 32
[5]; strain 1221979, MRSA, replicate R2
  MIC: 32
[5]; strain ATCC 29213, QC, replicate R1
  MIC: 32
[5]; strain ATCC 29213, QC, replicate R2
  MIC: 32
[6]; strain 1200385, PEN-S, replicate R1
  MIC: 32
[6]; strain 1200385, PEN-S, replicate R2
  MIC: 32
[6]; strain 1219456, PEN-R, replicate R1
  MIC: 32
[6]; strain 1219456, PEN-R, replicate R2
  MIC: 32
[6]; strain 1219876, PEN-R, replicate R1
  MIC: 32
[6]; strain 1219876, PEN-R, replicate R2
  MIC: 32
[6]; strain 1223661, PEN-R, replicate R1
  MIC: 32
[6]; strain 1223661, PEN-R, replicate R2
  MIC: 32
[6]; strain 1227224, PEN-S, replicate R1
  MIC: 16
[6]; strain 1227224, PEN-S, replicate R2
  MIC: 32
[6]; strain ATCC 49619, QC, replicate R1
  MIC: 16
[6]; strain ATCC 49619, QC, replicate R2
  MIC: 16
[7]; strain 1191008, MDR, ESBL, replicate R1
  MIC: 8 µg/mL
[7]; strain 1191008, MDR, ESBL, replicate R2
  MIC: 8 µg/mL
[7]; strain 1231795, MDR, ESBL, replicate R1
  MIC: 8 µg/mL
[7]; strain 1231795, MDR, ESBL, replicate R2
  MIC: 8 µg/mL
[7]; strain 1232428, MDR (COL-R), ESBL, replicate R1
  MIC: 16 µg/mL
[7]; strain 1232428, MDR (COL-R), ESBL, replicate R2
  MIC: 8 µg/mL
[7]; strain 1248389, ESBL, replicate R1
  MIC: 8 µg/mL
[7]; strain 1248389, ESBL, replicate R2
  MIC: 8 µg/mL
[7]; strain ATCC 25922, QC, replicate R1
  MIC: 8 (3×) and 4
[7]; strain ATCC 25922, QC, replicate R2
  MIC: 4 and 8 (2×)
[7]; strain ATCC BAA-2452, NDM-1, replicate R1
  MIC: 8 µg/mL
[7]; strain ATCC BAA-2452, NDM-1, replicate R2
  MIC: 4 µg/mL
[8]; strain 1204424, non-MDR, replicate R1
  MIC: 8 µg/mL
[8]; strain 1204424, non-MDR, replicate R2
  MIC: 8 µg/mL
[8]; strain 1208060, non-MDR, replicate R1
  MIC: 8 µg/mL
[8]; strain 1208060, non-MDR, replicate R2
  MIC: 4 µg/mL
[8]; strain 1215088, MDR, replicate R1
  MIC: 8 µg/mL
[8]; strain 1215088, MDR, replicate R2
  MIC: 4 µg/mL
[8]; strain 1215098, MDR, replicate R1
  MIC: 16 µg/mL
[8]; strain 1215098, MDR, replicate R2
  MIC: 8 µg/mL
[8]; strain 1216520, non-MDR, replicate R1
  MIC: 8 µg/mL
[8]; strain 1216520, non-MDR, replicate R2
  MIC: 4 µg/mL
[9]; strain 1204777, VRE, replicate R1
  MIC: 4
[9]; strain 1204777, VRE, replicate R2
  MIC: 2
[9]; strain 1211589, VRE, replicate R1
  MIC: 4
[9]; strain 1211589, VRE, replicate R2
  MIC: 2
[9]; strain ATCC 29212, QC, replicate R1
  MIC: 4
[9]; strain ATCC 29212, QC, replicate R2
  MIC: 4
